Experimental data from US12679878B2, “CRF2 receptor agonists and their use in therapy” (SANOFI, priority 2020, dated 2026).
In brackets after ≈: the same amount, converted by molar mass. Starred links: 1 amine or outer side, 2 acyl side, 3 side chain; linkers in the order of their positions; H or OH if unused. Non-standard residues stand in square brackets, D forms with d. Residues, ends and D or L forms follow the SMILES beside them. Groups on a side chain read outwards from the residue. *: point of attachment. C18 diacid = O=C(O)CCCCCCCCCCCCCCCCC(=O)*; C16 diacid = O=C(O)CCCCCCCCCCCCCCC(=O)*; γGlu = O=C(O)[C@H](CCC(=O)[*:2])N[*:1]; AEEA = NCCOCCOCC(=O)O

How the values were obtained:
[1] = target: T1, human CRF2α receptor (Homo sapiens, UniProt Q13324); experiment: cAMP agonism at human CRF2 α receptor in TeloHEAC cells (Example 7); type: cell-based; settings: cAMP HTRF, TeloHEAC cells stably expressing human CRF2 α
T1 construct: expressed in transfected cells; host or cells: TeloHEAC
T1 sequence (Q13324 1-411): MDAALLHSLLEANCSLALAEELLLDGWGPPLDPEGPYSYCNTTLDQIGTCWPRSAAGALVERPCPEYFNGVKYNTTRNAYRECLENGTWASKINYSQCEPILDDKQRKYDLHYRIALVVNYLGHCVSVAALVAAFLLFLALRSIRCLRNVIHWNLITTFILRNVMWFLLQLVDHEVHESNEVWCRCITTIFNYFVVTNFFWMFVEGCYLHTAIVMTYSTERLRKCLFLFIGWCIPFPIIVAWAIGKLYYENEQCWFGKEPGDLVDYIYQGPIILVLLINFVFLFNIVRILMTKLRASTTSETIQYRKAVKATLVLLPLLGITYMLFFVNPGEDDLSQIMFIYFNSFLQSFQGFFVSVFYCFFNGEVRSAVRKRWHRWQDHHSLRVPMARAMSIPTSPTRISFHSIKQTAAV
In short: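 Thawed frozen stably transfected cells in HBSS/20 mM HEPES (0% or 0.1% HSA) plus 2 mM IBMX were exposed to compound at 2000 cells/well for 30 min at room temperature. Intracellular cAMP was read by HTRF (665/620 nm ratio) after 1 h lysis; EC50 was derived with 1000 nM urocortin 2 set as 100%.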

[2] = test system: rat CRF2R α receptor; experiment: cAMP agonism at rat CRF2R α receptor in A7R5 rat aortic smooth muscle cells (Example 8); type: cell-based; settings: cAMP HTRF, A7R5 rat aortic smooth muscle cell line, 0% HSA
In short: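 Thawed cryopreserved A7R5 cells in HBSS/20 mM HEPES (0 or 0.1% HSA) with 2 mM IBMX, 2000 cells/well, were exposed to compound for 30 min at room temperature. cAMP was read by HTRF (665/620 nm ratio) after 1 h with lysis reagents. Activity was normalised to 1000 nM urocortin 2 as 100%, and EC50 was taken as the concentration giving 50% of maximal activation.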

[3] = target: T2, CRF1R receptor (Homo sapiens, UniProt P34998); experiment: cAMP activity at anti-target CRF1R, CRF1R-overexpression CHO cell line (Example 9); type: cell-based; settings: CHO
T2 construct: host or cells: CHO-K1 clone 2
T2 sequence (P34998 24-415): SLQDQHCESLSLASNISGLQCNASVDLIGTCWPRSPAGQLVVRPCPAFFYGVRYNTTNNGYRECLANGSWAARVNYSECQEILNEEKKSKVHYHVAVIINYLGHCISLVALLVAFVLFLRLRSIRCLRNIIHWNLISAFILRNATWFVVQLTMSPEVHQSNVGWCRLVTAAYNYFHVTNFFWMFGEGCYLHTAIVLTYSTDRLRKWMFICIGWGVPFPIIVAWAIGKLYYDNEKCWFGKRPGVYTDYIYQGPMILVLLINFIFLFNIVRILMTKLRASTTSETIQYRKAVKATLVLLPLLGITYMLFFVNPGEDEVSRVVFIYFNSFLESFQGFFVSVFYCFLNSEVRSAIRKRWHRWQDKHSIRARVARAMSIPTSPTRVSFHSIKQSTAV
In short: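 cAMP accumulation was read by HTRF after 30 min at room temperature of compound treatment. Cells were cryopreserved CHO cells overexpressing CRF1R, plated at 2000/well in IBMX (2 mM)-containing HBSS/HEPES buffer with 0 or 0.1% HSA. Activity was normalized to 1000 nM UCN2 as 100%.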

[4] = target: T3, recombinant human CRF2 (Homo sapiens, UniProt Q13324); experiment: CRF2a (h) agonist radioligand binding, [125]sauvagine, HEK cell membranes (Example 11)
T3 construct: expressed in transfected cells; host or cells: HEK
T3 sequence (Q13324 1-411): T1 sequence (Q13324 1-411)
Method: Receptor binding of the compounds was assessed using a CRF2a (h) (agonist radioligand) assay.
HEK cells expressing recombinant human CRF2 were used as a source of receptor for membrane preparation.
IC50 values (concentration causing a half-maximal inhibition of control specific binding) and Hill coefficients (nH) were determined by non-linear regression analysis of the competition curves generated with mean replicate values using Hill equation curve fitting. The inhibition constants (Ki) were calculated using the Cheng Prusoff equation [Ki=IC50/(1+L/KD) where L is the concentration of radioligand in the assay, and KD is the affinity of the radioligand for the receptor). A Scatchard plot was used to determine the KD.

[5] = Solubility in buffer systems by UPLC-UV (Example 13); type: physicochemical; settings: target 10 mg/ml
In short: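 The supernatant was diluted 1:10 and quantified by UPLC-UV peak area against a reference standard curve, correcting for sequence-based extinction coefficients.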

[6] = target: T1, human CRF2α receptor; experiment: cAMP agonism at human CRF2α receptor in TeloHEAC cells, FA modified peptides (Example 19.9); type: cell-based; settings: 0% HSA, relative to urocortin 2
In short: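 Efficacy and EC50 are referenced to 100 nM urocortin 2 as 100%, with cAMP measured as the 665/620 nm HTRF ratio after 1 h at room temperature. Compounds (0.5 mM DMSO stock, 16 twofold dilutions) acted 30 min at 37 °C on CRF2α-expressing TeloHEAC cells, buffer containing IBMX and 0% or 0.2% HSA.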

[7] = target: T2, CRF1R receptor; experiment: cAMP activity at anti-target CRF1R, CHO-K1 cell line clone 2 (Example 19.10); type: cell-based; settings: ratio of CRF1 EC50 to CRF2 EC50
In short: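 A CRF1R-overexpressing CHO-K1 line (clone 2) was grown in F12/10% FBS/G418 and frozen in aliquots before use. The cAMP assay followed the preceding procedure, with 100% activation defined by Sauvagine at 100 nM.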

[8] = In vitro plasma stability, rat plasma (Example 19.11); type: in vitro ADME, Sprague Dawley rats; set-up: remaining at 2 h: dose or concentration left out as unconfirmed; settings: male, Sprague Dawley, rat, plasma, 37° C.
Method: (§1) In vitro plasma metabolic stability was studied in male Sprague Dawley rats and human. Test compound were incubated […] for 2 hours at 37° C. At each time point (0, 0.25, 1 and 2 h), samples were prepared for analysis by means of a single step protein precipitation technique by adding 150 μL of ethanol, 0.1% formic acid to 50 μL aliquots of plasma. Samples were mixed by vortex for homogeneity and then subjected to centrifugation at 14000 rpm for 15 min. The supernatant (100 μL) was collected, diluted with 100 μL of water, 0.1% formic acid and analyzed by LC-HRMS (TripleTOF 6600+, AB Sciex). For each test compound, the area ratios at each time point were compared to the 0 h area ratio and converted to a percentage remaining.

[9] = In vitro plasma stability, human plasma (Example 19.11); type: in vitro ADME; set-up: dose or concentration left out as unconfirmed; settings: 37° C.
Method: as §1

[10] = Buffer solubility by LC-UV, pH 7.4 phosphate and pH 4.5 acetate (Example 19.11); type: physicochemical; settings: target 10 mg/mL
In short: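 Powders dissolved at a target 10 mg/mL in 100 mM phosphate pH 7.4 or 100 mM acetate pH 4.5, held 1 h at room temperature, then centrifuged. Diluted supernatant analysed by LC-UV; solubility from peak area against the same compound at 0.5 mg/ml in water:acetonitrile 1:1 with 0.1% formic acid.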

[11] = Chemical stability as % loss by LC-UV, 28 days 40° C. vs 5° C. (Example 19.11); type: physicochemical

Row | EC50 [6] | CRF1/CRF2 ratio [7] | remaining at 2 h [8] | remaining at 2 h [9] | solubility at 1 h ([10]; pH 4.5, 100 mM acetate buffer) | solubility at 1 h ([10]; pH 7.4, 100 mM phosphate buffer) | % loss (chemical stability) ([11]; pH 4.5) | % loss (chemical stability) ([11]; pH 7.4) | Structure (SMILES) | EC50 ([1]; 0% HSA, read-out: EC50 [nM], 0% HSA) | EC50 ([1]; 0.1% HSA, read-out: EC50 [nM], 0.1% HSA) | EC50 [2] | Emax [3] | Ki [4] | nH (Hill coefficient) ([4]; competition with [125]sauvagine 0.1 nM) | solubility at 1 h ([5]; Buffer B: 100 mM acetate buffer, pH 4.5, 2.7 mg/ml m-cresol, read-out: Solubility in Buffer B) | solubility at 1 h ([5]; Buffer C: 100 mM phosphate buffer, pH 7.4, read-out: Solubility in Buffer C)
1 |  |  |  |  |  |  |  |  | CC[C@H](C)[C@H](NC(=O)[C@H](CCC(N)=O)NC(=O)[C@H](CCC(=O)O)NC(=O)[C@H](CC(C)C)NC(=O)[C@H](CC(C)C)NC(=O)[C@H](CCC(N)=O)NC(=O)[C@H](CCCCN)NC(=O)[C@H](CC(N)=O)NC(=O)[C@H](CCCCN)NC(=O)[C@H](CCC(=O)O)NC(=O)[C@H](C)NC(=O)[C@H](CCC(N)=O)NC(=O)[C@H](CCC(N)=O)NC(=O)[C@H](CCCNC(=N)N)NC(=O)[C@H](CCC(=O)O)NC(=O)[C@H](CCCCN)NC(=O)[C@H](CCCCN)NC(=O)[C@H](CCC(N)=O)NC(=O)[C@H](CCCCN)NC(=O)[C@H](CCC(N)=O)NC(=O)[C@H](CCC(N)=O)NC(=O)[C@H](CCCCN)NC(=O)[C@H](CC(C)C)NC(=O)[C@H](CC(C)C)NC(=O)[C@@H](NC(=O)[C@H](CCC(N)=O)NC(=O)[C@H](CCCCNC(=O)COCCOCCNC(=O)COCCOCCNC(=O)CC[C@H](NC(=O)CCCCCCCCCCCCCCCCC(=O)O)C(=O)O)NC(=O)[C@@H](NC(=O)[C@H](CCCCN)NC(=O)[C@@H](NC(=O)[C@@H]1CCCN1C(=O)[C@@H](NC(=O)[C@H](CC(=O)O)NC(=O)[C@H](CC(C)C)NC(=O)[C@H](CO)NC(=O)[C@H](CC(C)C)NC(=O)[C@@H](NC(=O)[C@@H](N)Cc1ccccc1)[C@@H](C)O)C(C)C)[C@@H](C)O)[C@@H](C)CC)[C@@H](C)CC)C(N)=O [compound 51] (H-FTLSLDVPTKIK([AEEA-AEEA-γGlu-C18 diacid])QILLKQQKQKKERQQAEKNKQLLEQI-NH2; N-terminus assumed) | 0.32 nM | 21.4 nM | 0.87 nM | 3.38% | 4.3 nM | 0.8 | > 8800 µg/mL | > 7700 µg/mL
2 | 0.83 nM | 68 | 109% | 95% | 8400 µg/mL (≈ 1720 µM) | 7900 µg/mL (≈ 1610 µM) | 0% | 49% | CC[C@H](C)[C@H](N)C(=O)N[C@H](C(=O)N[C@@H](CC(C)C)C(=O)N[C@@H](CO)C(=O)N[C@@H](CC(C)C)C(=O)N[C@@H](CC(=O)O)C(=O)N[C@@H](C(=O)N1CCC[C@H]1C(=O)N[C@H](C(=O)N[C@@H](CCCCN)C(=O)N[C@@H](CC(C)C)C(=O)N[C@@H](CCCCNC(=O)CC[C@H](NC(=O)CCCCCCCCCCCCCCC(=O)O)C(=O)O)C(=O)N[C@@H](CCC(N)=O)C(=O)N[C@H](C(=O)N[C@@H](CC(C)C)C(=O)N[C@@H](CC(C)C)C(=O)N[C@@H](CCCCN)C(=O)N[C@@H](CCC(N)=O)C(=O)N[C@@H](CCC(=O)O)C(=O)N[C@@H](CCCNC(=N)N)C(=O)N[C@@H](CCC(N)=O)C(=O)N[C@@H](CCCCN)C(=O)N[C@@H](CCCCN)C(=O)N[C@@H](CCC(N)=O)C(=O)N[C@@H](CCCNC(=N)N)C(=O)N[C@@H](CCC(N)=O)C(=O)N[C@@H](CCC(N)=O)C(=O)N[C@@H](C)C(=O)N[C@@H](CCC(=O)O)C(=O)N[C@@H](CCCCN)C(=O)N[C@@H](CC(N)=O)C(=O)N[C@@H](CCCCN)C(=O)N[C@@H](CCC(N)=O)C(=O)N[C@H](C(=O)N[C@@H](CC(C)C)C(=O)N[C@@H](C)C(=O)N[C@@H](CCC(N)=O)C(=O)N[C@H](C(N)=O)C(C)C)[C@@H](C)CC)[C@@H](C)CC)[C@@H](C)CC)C(C)C)C(C)C [compound 192] (H-IVLSLD[dV]PIKLK([γGlu-C16 diacid])QILLKQERQKKQRQQAEKNKQILAQV-NH2; N-terminus assumed) |  |  |  |  |  |  |  | 
